US20220408724A1, “METHOD FOR CONTROLLING METABOLISM OF BRANCHED FATTY ACID” (KAO CORPORATION, priority 2019, published 2022)

Key:
Type in all cases: cell-based
Moraxella osloensis [1] = assay: Examination example: suppression of metabolism of 14-methylhexadecanoic acid, components (a) and (b)/(b′); conditions: for Metabolism of branched fatty acid: Residual amount (μg/fabric g): 14-methylhexadecanoic acid
Experimental: The suppression of metabolism of 14-methylhexadecanoic acid by bacteria of the genus Moraxella and the suppression of a metabolite therefrom were tested in the following manner.
Moraxella osloensis (strain isolated from clothing) was precultured on an SCD-LP agar medium (NIHON PHARMACEUTICAL CO., LTD.) at 37° C.; for 24 hours, and a bacterial suspension of 10^6 (CFU/ml) was prepared by using an NB liquid medium (Difco) diluted to 1/20 with ion exchange water.
A methanol solution in which 14-methylhexadecanoic acid (SIGMA-ALDRICH) was dissolved was added dropwise to 3 cm×3 cm pieces of sterilized plain-weave cotton fabric to make it adhered to the fabric. The adhesion amount of 14-methylhexadecanoic acid was set to 10 μg per piece of the plain-weave cotton fabric (100 μg/fabric g). Further, a methanol solution in which component (a) was dissolved, and then, a methanol solution in which component (b) or (b′) was dissolved were added dropwise to the fabric to which 14-methylhexadecanoic acid adhered, and it was thereafter dried for an hour. This fabric was placed in a sterilized screw tube bottle No. 3 (Maruemu Corporation) and 100 μl of the bacterial suspension was inoculated thereto, and culture was carried out under 37° C.; conditions for 21 hours.
3 ml of methanol was added to the screw tube bottle after culture, and extraction was carried out under ultrasonic irradiation for 30 minutes (20° C.). The extraction liquid was mixed with a (trimethylsilyl)diazomethane hexane solution (FUJIFILM Wako Pure Chemical Corporation) at 9:1 (volume ratio) and left overnight under room temperature and dark place conditions. After that, 14-methylhexadecanoic acid remaining on the fabric was quantified by GC. The quantification conditions for GC are as follows. • GC: Agilent 6890N • GC column: Agilent DB-1 30 m×250 μm×0.25 μm • Temperature rise condition: 50° C. (held for 3 minutes)-(10° C./min)-300° C. (held for 5 minutes) • Sample injection volume: 1 μl • Split ratio: 1:12 • Detector: FID
The residual amount of 14-methylhexadecanoic acid after culture on the fabric to which each metabolism controlling agent was added was quantified, and the ratio of the residual amount to that of 14-methylhexadecanoic acid in the case of adding no metabolism controlling agent (control) was calculated as a metabolism suppression rate (%). The higher a numerical value thereof is, the more the metabolism is suppressed. Note that the metabolism suppression rate was determined by the following formula:
Metabolism suppression rate(%)=[1−(100−A)/(100−B)]×100 • A: residual amount of 14-methylhexadecanoic acid of reference or examination example (μg/fabric g) • B: residual amount of 14-methylhexadecanoic acid of control (μg/fabric g)
A control is an example in which none of component (a), (b) or (b′) is added, and references 1-1, 2-1, 3-1 and 4-1 qualify as this (the same applies hereinafter). In these controls, the metabolism suppression rate is 0′.

Moraxella osloensis [2] = assay: Examination example: suppression of metabolite 4-methyl-3-hexenoic acid, components (a) and (b)/(b′)
Experimental: After culture on fabric prepared in the same manner as in the above (1), 3 ml of methanol was added, and extraction was carried out under ultrasonic irradiation for 30 minutes (20° C.). The extraction liquid was mixed with (a 1000 ppm methanol solution of) an ADAM reagent of Funakoshi Co., Ltd. at 1:1 (volume ratio) and left overnight under room temperature and dark place conditions. After that, 4-methyl-3-hexenoic acid as a metabolite from 14-methylhexadecanoic acid was quantified by HPLC. The quantification conditions are as follows.
Eluent: acetonitrile 61% (v/v), water 39% (v/v) Column temperature: 40° C. Sample injection volume: 10 μL Flow rate: 1.0 mL/min
The production amount of 4-methyl-3-hexenoic acid after culture on the fabric to which the metabolism controlling agent was added was quantified, and the ratio of the production amount to that of 4-methyl-3-hexenoic acid in the case of adding no metabolism controlling agent (control) was calculated as a metabolite suppression rate (%). The higher a numerical value thereof is, the more the metabolism is suppressed. Note that the metabolite suppression rate was determined by the following formula. In references 1-1, 2-1, 3-1 and 4-1, which are controls, the metabolite suppression rate is 0%.
Metabolite suppression rate(%)=100×[(D−C)/D] • C: production amount of metabolite of reference or examination example (μg/fabric g) • D: production amount of metabolite of control (μg/fabric g)

Moraxella osloensis [3] = assay: Examination example: measurement of viable bacterial count
Experimental: After culture on fabric prepared in the same manner as in the above (1), 9 mL of an LP diluent (manufactured by NIHON PHARMACEUTICAL CO., LTD.) was added, and the extraction of the bacteria was carried out under ultrasound for 10 minutes. The extraction liquid was poured and mixed to an SCD-LP agar medium (NIHON PHARMACEUTICAL CO., LTD.), and culture was thereafter carried out at 37° C.; for a day. The number of colonies obtained on each piece of the fabric was counted, and a common logarithm value thereof was measured as the viable bacterial count. […] In addition, the […], the more the viable bacterial count of the microorganism is maintained.

C/C=C/C/C=C/CCC(=O)[C@H]1O[C@H]1C(N)=O [Cerulenin, [2R,3S]-2,3-epoxy-4-oxo-7,10-trans,trans-dodecanoic acid amide]
Metabolism of branched fatty acid: Residual amount (μg/fabric g) (Moraxella osloensis [1]; single agent 5 μg/fabric g): 39 μg/fabric g | Metabolism of branched fatty acid: Residual amount (μg/fabric g) (Moraxella osloensis [1]; single agent 10 μg/fabric g): 41 μg/fabric g | Metabolism of branched fatty acid: Residual amount (μg/fabric g) (Moraxella osloensis [1]; single agent 20 μg/fabric g): 48 μg/fabric g | Metabolism of branched fatty acid: Metabolism suppression rate (%) (Moraxella osloensis [1]; single agent 5 μg/fabric g): 0% | Metabolism of branched fatty acid: Metabolism suppression rate (%) (Moraxella osloensis [1]; single agent 10 μg/fabric g): 3% | Metabolism of branched fatty acid: Metabolism suppression rate (%) (Moraxella osloensis [1]; single agent 20 μg/fabric g): 15% | Product of metabolism of branched fatty acid: Metabolite suppression rate (%) (Moraxella osloensis [2]; single agent 5 μg/fabric g): 2% | Product of metabolism of branched fatty acid: Production amount (μg/fabric g) (Moraxella osloensis [2]; single agent 5 μg/fabric g): 4.3 μg/fabric g | Product of metabolism of branched fatty acid: Metabolite suppression rate (%) (Moraxella osloensis [2]; single agent 10 μg/fabric g): 9% | Product of metabolism of branched fatty acid: Production amount (μg/fabric g) (Moraxella osloensis [2]; single agent 10 μg/fabric g): 4.0 μg/fabric g | Product of metabolism of branched fatty acid: Metabolite suppression rate (%) (Moraxella osloensis [2]; single agent 20 μg/fabric g): 11% | Product of metabolism of branched fatty acid: Production amount (μg/fabric g) (Moraxella osloensis [2]; single agent 20 μg/fabric g): 3.9 μg/fabric g | Viable bacterial count (Log (cfu/fabric cm^2)) (Moraxella osloensis [3]; single agent 5 μg/fabric g): 6.1 Log (cfu/fabric cm^2) | Viable bacterial count (Log (cfu/fabric cm^2)) (Moraxella osloensis [3]; single agent 10 μg/fabric g): 6.3 Log (cfu/fabric cm^2) | Viable bacterial count (Log (cfu/fabric cm^2)) (Moraxella osloensis [3]; single agent 20 μg/fabric g): 6.3 Log (cfu/fabric cm^2)

Oc1cc(Cl)ccc1Oc1ccc(Cl)cc1 [Diclosan, 4-4′-dichloro-2-hydroxydiphenyl ether]
Metabolism of branched fatty acid: Residual amount (μg/fabric g) (Moraxella osloensis [1]; single agent 1 μg/fabric g): 43 μg/fabric g | Metabolism of branched fatty acid: Residual amount (μg/fabric g) (Moraxella osloensis [1]; single agent 2 μg/fabric g): 46 μg/fabric g | Metabolism of branched fatty acid: Residual amount (μg/fabric g) (Moraxella osloensis [1]; single agent 5 μg/fabric g): 56 μg/fabric g | Metabolism of branched fatty acid: Metabolism suppression rate (%) (Moraxella osloensis [1]; single agent 1 μg/fabric g): 7% | Metabolism of branched fatty acid: Metabolism suppression rate (%) (Moraxella osloensis [1]; single agent 2 μg/fabric g): 11% | Metabolism of branched fatty acid: Metabolism suppression rate (%) (Moraxella osloensis [1]; single agent 5 μg/fabric g): 27% | Product of metabolism of branched fatty acid: Metabolite suppression rate (%) (Moraxella osloensis [2]; single agent 1 μg/fabric g): 5% | Product of metabolism of branched fatty acid: Production amount (μg/fabric g) (Moraxella osloensis [2]; single agent 1 μg/fabric g): 4.2 μg/fabric g | Product of metabolism of branched fatty acid: Metabolite suppression rate (%) (Moraxella osloensis [2]; single agent 2 μg/fabric g): 14% | Product of metabolism of branched fatty acid: Production amount (μg/fabric g) (Moraxella osloensis [2]; single agent 2 μg/fabric g): 3.8 μg/fabric g | Product of metabolism of branched fatty acid: Metabolite suppression rate (%) (Moraxella osloensis [2]; single agent 5 μg/fabric g): 41% | Product of metabolism of branched fatty acid: Production amount (μg/fabric g) (Moraxella osloensis [2]; single agent 5 μg/fabric g): 2.6 μg/fabric g | Viable bacterial count (Log (cfu/fabric cm^2)) (Moraxella osloensis [3]; single agent 1 μg/fabric g): 6.2 Log (cfu/fabric cm^2) | Viable bacterial count (Log (cfu/fabric cm^2)) (Moraxella osloensis [3]; single agent 2 μg/fabric g): 6.0 Log (cfu/fabric cm^2) | Viable bacterial count (Log (cfu/fabric cm^2)) (Moraxella osloensis [3]; single agent 5 μg/fabric g): 5.1 Log (cfu/fabric cm^2)

Oc1cc(Cl)ccc1Oc1ccc(Cl)cc1Cl [Triclosan, 2,4,4′-trichloro-2′-hydroxydiphenyl ether]
Metabolism of branched fatty acid: Residual amount (μg/fabric g) (Moraxella osloensis [1]; single agent 0.5 μg/fabric g): 43 μg/fabric g | Metabolism of branched fatty acid: Residual amount (μg/fabric g) (Moraxella osloensis [1]; single agent 1 μg/fabric g): 38 μg/fabric g | Metabolism of branched fatty acid: Residual amount (μg/fabric g) (Moraxella osloensis [1]; single agent 2 μg/fabric g): 44 μg/fabric g | Metabolism of branched fatty acid: Metabolism suppression rate (%) (Moraxella osloensis [1]; single agent 0.5 μg/fabric g): 6% | Metabolism of branched fatty acid: Metabolism suppression rate (%) (Moraxella osloensis [1]; single agent 1 μg/fabric g): −2% | Metabolism of branched fatty acid: Metabolism suppression rate (%) (Moraxella osloensis [1]; single agent 2 μg/fabric g): 8% | Product of metabolism of branched fatty acid: Metabolite suppression rate (%) (Moraxella osloensis [2]; single agent 1 μg/fabric g): 5% | Product of metabolism of branched fatty acid: Production amount (μg/fabric g) (Moraxella osloensis [2]; single agent 1 μg/fabric g): 4.2 μg/fabric g | Product of metabolism of branched fatty acid: Metabolite suppression rate (%) (Moraxella osloensis [2]; single agent 2 μg/fabric g): 7% | Product of metabolism of branched fatty acid: Production amount (μg/fabric g) (Moraxella osloensis [2]; single agent 2 μg/fabric g): 4.1 μg/fabric g | Viable bacterial count (Log (cfu/fabric cm^2)) (Moraxella osloensis [3]; single agent 0.5 μg/fabric g): 6.2 Log (cfu/fabric cm^2) | Viable bacterial count (Log (cfu/fabric cm^2)) (Moraxella osloensis [3]; single agent 1 μg/fabric g): 6.2 Log (cfu/fabric cm^2) | Viable bacterial count (Log (cfu/fabric cm^2)) (Moraxella osloensis [3]; single agent 2 μg/fabric g): 6.0 Log (cfu/fabric cm^2)

N#CC(C#N)=NNc1cccc(Cl)c1 [CCCP, carbonylcyanide-m-chlorophenylhydrazone]
Metabolism of branched fatty acid: Residual amount (μg/fabric g) (Moraxella osloensis [1]; single agent 2 μg/fabric g): 44 μg/fabric g | Metabolism of branched fatty acid: Residual amount (μg/fabric g) (Moraxella osloensis [1]; single agent 5 μg/fabric g): 56 μg/fabric g | Metabolism of branched fatty acid: Metabolism suppression rate (%) (Moraxella osloensis [1]; single agent 2 μg/fabric g): 8% | Metabolism of branched fatty acid: Metabolism suppression rate (%) (Moraxella osloensis [1]; single agent 5 μg/fabric g): 28% | Product of metabolism of branched fatty acid: Metabolite suppression rate (%) (Moraxella osloensis [2]; single agent 2 μg/fabric g): 25% | Product of metabolism of branched fatty acid: Production amount (μg/fabric g) (Moraxella osloensis [2]; single agent 2 μg/fabric g): 3.3 μg/fabric g | Product of metabolism of branched fatty acid: Metabolite suppression rate (%) (Moraxella osloensis [2]; single agent 5 μg/fabric g): 36% | Product of metabolism of branched fatty acid: Production amount (μg/fabric g) (Moraxella osloensis [2]; single agent 5 μg/fabric g): 2.8 μg/fabric g | Viable bacterial count (Log (cfu/fabric cm^2)) (Moraxella osloensis [3]; single agent 2 μg/fabric g): 6.1 Log (cfu/fabric cm^2) | Viable bacterial count (Log (cfu/fabric cm^2)) (Moraxella osloensis [3]; single agent 5 μg/fabric g): 5.5 Log (cfu/fabric cm^2)
